# Assay results taken from US20160367623A1, “AGONISTS OF GUANYLATE CYCLASE USEFUL FOR THE TREATMENT OF GASTROINTESTINAL DISORDERS, INFLAMMATION, CANCER AND OTHER DISORDERS” (priority 2015, published 2016).
# Bridge positions count the residues as written; N and C are the ends. Ends that are not written are not given here.
# Tested on: patients with chronic idiopathic constipation (CIC)
# Assay: Second phase 3 CIC trial: change from baseline in stool consistency (BSFS)
# Type: in vivo, human
# [1] = 6 mg, Week 9, ITT Population-Excluding Duplicate Patients
# [2] = 6 mg, Week 10, All Randomized (includes Duplicate Patients)
# [3] = 6 mg, Week 10, ITT Population-Excluding Duplicate Patients
# [4] = 6 mg, Week 11, All Randomized (includes Duplicate Patients)
# [5] = 6 mg, Week 11, ITT Population-Excluding Duplicate Patients
# [6] = 6 mg, Week 12, All Randomized (includes Duplicate Patients)
# [7] = 6 mg, Week 12, ITT Population-Excluding Duplicate Patients
# [8] = 6 mg, overall average estimate across the 12-week treatment period, All Randomized (includes Duplicate Patients)
# [9] = 6 mg, overall average estimate across the 12-week treatment period, ITT Population
# [10] = 6 mg, overall average estimate across the 12-week treatment period, ITT Population-Excluding Duplicate Patients
substance,measurement,setting,value
"Asn^1-Asp^2-Glu^3-Cys^4-Glu^5-Leu^6-Cys^7-Val^8-Asn^9-Val^10-Ala^11-Cys^12-Thr^13-Gly^14-Cys^15-Leu^16 (NDECELCVNVACTGCL; disulfide 4-12, 7-15) [Plecanatide, uroguanylin analogue, guanylate cyclase-C agonist; (C4:C12, C7:C15) bicycle peptide]","Change from Baseline in Stool Consistency, LS Mean (SE)","6 mg, Week 9, All Randomized (includes Duplicate Patients)",1.54 (0.073)
same,"Change from Baseline in Stool Consistency, Difference from Placebo","6 mg, Week 9, ITT Population",0.68
same,"Change from Baseline in Stool Consistency, LS Mean (SE)","6 mg, Week 9, ITT Population",1.57 (0.075)
same,"Change from Baseline in Stool Consistency, Mean (SD)","6 mg, Week 9, ITT Population",1.62 (1.507)
same,"Change from Baseline in Stool Consistency, Difference from Placebo",[1],0.68
same,"Change from Baseline in Stool Consistency, LS Mean (SE)",[1],1.59 (0.075)
same,"Change from Baseline in Stool Consistency, Mean (SD)",[1],1.63 (1.510)
same,"Change from Baseline in Stool Consistency, Difference from Placebo",[2],0.62
same,"Change from Baseline in Stool Consistency, LS Mean (SE)",[2],1.52 (0.073)
same,"Change from Baseline in Stool Consistency, Difference from Placebo","6 mg, Week 10, ITT Population",0.62
same,"Change from Baseline in Stool Consistency, LS Mean (SE)","6 mg, Week 10, ITT Population",1.55 (0.075)
same,"Change from Baseline in Stool Consistency, Mean (SD)","6 mg, Week 10, ITT Population",1.59 (1.432)
same,"Change from Baseline in Stool Consistency, Difference from Placebo",[3],0.63
same,"Change from Baseline in Stool Consistency, LS Mean (SE)",[3],1.57 (0.075)
same,"Change from Baseline in Stool Consistency, Mean (SD)",[3],1.60 (1.437)
same,"Change from Baseline in Stool Consistency, Difference from Placebo",[4],0.58
same,"Change from Baseline in Stool Consistency, LS Mean (SE)",[4],1.50 (0.073)
same,"Change from Baseline in Stool Consistency, Difference from Placebo","6 mg, Week 11, ITT Population",0.57
same,"Change from Baseline in Stool Consistency, LS Mean (SE)","6 mg, Week 11, ITT Population",1.53 (0.075)
same,"Change from Baseline in Stool Consistency, Mean (SD)","6 mg, Week 11, ITT Population",1.58 (1.499)
same,"Change from Baseline in Stool Consistency, Difference from Placebo",[5],0.59
same,"Change from Baseline in Stool Consistency, LS Mean (SE)",[5],1.55 (0.076)
same,"Change from Baseline in Stool Consistency, Mean (SD)",[5],1.59 (1.504)
same,"Change from Baseline in Stool Consistency, Difference from Placebo",[6],0.48
same,"Change from Baseline in Stool Consistency, LS Mean (SE)",[6],1.48 (0.074)
same,"Change from Baseline in Stool Consistency, Difference from Placebo","6 mg, Week 12, ITT Population",0.49
same,"Change from Baseline in Stool Consistency, LS Mean (SE)","6 mg, Week 12, ITT Population",1.51 (0.076)
same,"Change from Baseline in Stool Consistency, Mean (SD)","6 mg, Week 12, ITT Population",1.58 (1.487)
same,"Change from Baseline in Stool Consistency, Difference from Placebo",[7],0.51
same,"Change from Baseline in Stool Consistency, LS Mean (SE)",[7],1.53 (0.076)
same,"Change from Baseline in Stool Consistency, Mean (SD)",[7],1.59 (1.492)
same,"Change from Baseline in Stool Consistency, Difference from Placebo",[8],0.63
same,"Change from Baseline in Stool Consistency, LS Mean (SE)",[8],1.47 (0.059)
same,"Change from Baseline in Stool Consistency, Difference from Placebo",[9],0.63
same,"Change from Baseline in Stool Consistency, LS Mean (SE)",[9],1.50 (0.061)
same,"Change from Baseline in Stool Consistency, Difference from Placebo",[10],0.64
same,"Change from Baseline in Stool Consistency, LS Mean (SE)",[10],1.52 (0.061)
same,"Change from Baseline in Stool Consistency, Mean (SD)","Active Combined, Post-Treatment Week 13, All Randomized (includes Duplicate Patients)",1.15 (1.387)
same,"Change from Baseline in Stool Consistency, Mean (SD)","Active Combined, Post-Treatment Week 13, ITT Population",1.14 (1.392)
same,"Change from Baseline in Stool Consistency, Mean (SD)","Active Combined, Post-Treatment Week 13, ITT Population-Excluding Duplicate Patients",1.14 (1.397)
same,"Change from Baseline in Stool Consistency, Mean (SD)","Active Combined, Post-Treatment Week 14, All Randomized (includes Duplicate Patients)",1.12 (1.394)
same,"Change from Baseline in Stool Consistency, Mean (SD)","Active Combined, Post-Treatment Week 14, ITT Population",1.12 (1.379)
same,"Change from Baseline in Stool Consistency, Mean (SD)","Active Combined, Post-Treatment Week 14, ITT Population-Excluding Duplicate Patients",1.12 (1.384)
same,"Change from Baseline in Stool Consistency, Mean (SD)","Active Combined, Week 1, All Randomized (includes Duplicate Patients)",1.41 (1.482)
same,"Change from Baseline in Stool Consistency, Mean (SD)","Active Combined, Week 1, ITT Population",1.42 (1.490)
same,"Change from Baseline in Stool Consistency, Mean (SD)","Active Combined, Week 1, ITT Population-Excluding Duplicate Patients",1.43 (1.482)
same,"Change from Baseline in Stool Consistency, Mean (SD)","Active Combined, Week 2, All Randomized (includes Duplicate Patients)",1.41 (1.563)
same,"Change from Baseline in Stool Consistency, Mean (SD)","Active Combined, Week 2, ITT Population",1.42 (1.571)
same,"Change from Baseline in Stool Consistency, Mean (SD)","Active Combined, Week 2, ITT Population-Excluding Duplicate Patients",1.43 (1.570)
same,"Change from Baseline in Stool Consistency, Mean (SD)","Active Combined, Week 3, All Randomized (includes Duplicate Patients)",1.48 (1.526)
same,"Change from Baseline in Stool Consistency, Mean (SD)","Active Combined, Week 3, ITT Population",1.49 (1.527)
same,"Change from Baseline in Stool Consistency, Mean (SD)","Active Combined, Week 3, ITT Population-Excluding Duplicate Patients",1.49 (1.532)
same,"Change from Baseline in Stool Consistency, Mean (SD)","Active Combined, Week 4, ITT Population",1.48 (1.550)
same,"Change from Baseline in Stool Consistency, Mean (SD)","Active Combined, Week 4, ITT Population-Excluding Duplicate Patients",1.49 (1.557)
same,"Change from Baseline in Stool Consistency, Mean (SD)","Active Combined, Week 5, ITT Population",1.63 (1.530)
same,"Change from Baseline in Stool Consistency, Mean (SD)","Active Combined, Week 5, ITT Population-Excluding Duplicate Patients",1.64 (1.535)
same,"Change from Baseline in Stool Consistency, Mean (SD)","Active Combined, Week 6, ITT Population",1.62 (1.525)
same,"Change from Baseline in Stool Consistency, Mean (SD)","Active Combined, Week 6, ITT Population-Excluding Duplicate Patients",1.62 (1.524)
same,"Change from Baseline in Stool Consistency, Mean (SD)","Active Combined, Week 7, ITT Population",1.57 (1.494)
same,"Change from Baseline in Stool Consistency, Mean (SD)","Active Combined, Week 7, ITT Population-Excluding Duplicate Patients",1.58 (1.498)
same,"Change from Baseline in Stool Consistency, Mean (SD)","Active Combined, Week 8, ITT Population",1.62 (1.520)
same,"Change from Baseline in Stool Consistency, Mean (SD)","Active Combined, Week 8, ITT Population-Excluding Duplicate Patients",1.62 (1.523)
same,"Change from Baseline in Stool Consistency, Mean (SD)","Active Combined, Week 9, ITT Population",1.65 (1.487)
same,"Change from Baseline in Stool Consistency, Mean (SD)","Active Combined, Week 9, ITT Population-Excluding Duplicate Patients",1.65 (1.489)
same,"Change from Baseline in Stool Consistency, Mean (SD)","Active Combined, Week 10, ITT Population",1.62 (1.485)
same,"Change from Baseline in Stool Consistency, Mean (SD)","Active Combined, Week 10, ITT Population-Excluding Duplicate Patients",1.62 (1.491)
same,"Change from Baseline in Stool Consistency, Mean (SD)","Active Combined, Week 11, ITT Population",1.58 (1.547)
same,"Change from Baseline in Stool Consistency, Mean (SD)","Active Combined, Week 11, ITT Population-Excluding Duplicate Patients",1.59 (1.548)
same,"Change from Baseline in Stool Consistency, Mean (SD)","Active Combined, Week 12, ITT Population",1.64 (1.483)
same,"Change from Baseline in Stool Consistency, Mean (SD)","Active Combined, Week 12, ITT Population-Excluding Duplicate Patients",1.64 (1.484)
